# Values of other authors as cited in US20080139514A1, “DIPHOSPHONIC ACID PHARMACEUTICAL COMPOSITIONS” (priority 2006, published 2008).
# Where two headings read alike, the source gives them in different places.
# Tests used:
# [1] = stored at room temperature
Solubility in organic solvents (organic solvents),Solubility in water,Stability on storage [1],Solubility in water (monosodium monohydrate),SMILES
practically insoluble,freely soluble,–,–,"CCCCCN(C)CCC(O)(P(=O)(O)O)P(=O)(O)O [Ibandronic acid, 3-(N-methyl-N-pentyl) amino-1-hydroxypropane-1,1-diphosphonic acid]"
–,–,quite stable,poor,"CCCCCN(C)CCC(O)(P(=O)(O)O)P(=O)(O)O [ibandronate sodium, ibandronate monosodium monohydrate]"
